In US20250003959A1, “CELL ANALYSIS METHODS, COMPOSITIONS, AND USES” (Institute for Systems Biology, priority 2021, published 2025):

Assays:
U87VIII single cells = experiment: Single-cell barcode chip (SCBC) FA-N3 uptake measurement; assay type: cell-based, human
Method: For SCBC measurements, the as-prepared single cells were resuspended in warm FBS-free media supplemented with 10 mM FA-N3 at 2 M cells/mL. After being incubated at 37° C. for 30 min and washed with FBS-free media 3 times, the collected cell pellet was resuspended in serum-free, biotin-free media. The concentration of the as-prepared single-cell suspension was 2 M cells/mL.
The SCBCs were fabricated according to well-established procedures (Xue et al (2015) J Am Chem Soc 137 (12): 4066-4069). DNA-encoded antibody library (DEAL) was grafted onto the surface through DNA hybridization to enable capture antibody arrays. The FA surface probe was also incorporated onto the surface barcode through the same procedure.
The SCBC devices were operated following previously established protocols (Xue et al (2015) J Am Chem Soc 137 (12): 4066-4069)). Briefly, FA-N3 detection was achieved by a surface-based competitive FRET assay, and protein detection was carried out by a sandwich immunofluorescence assay. The cells were loaded in the SCBC with FA-N3 first. Then each cell was isolated and lysed on each chamber. Upon cell lysing, FA-N3 and other analytes were released from the cell and captured on the surface. Subsequently, the detection cocktail containing BHQ2-N3 and antibodies were added to the chamber, and the fluorescence readout was recorded.
The dendrimer-ssDNA conjugate can be mixed with a cocktail of antibody-ssDNA conjugates to enable multiplex quantitation. As a proof of concept, we quantified the azidopentanoic acid uptake, critical signaling protein levels, and cell proliferation marker (Ki67) in U87VIII single cells. […] We further investigated if the FA-N3 uptake was dictated by the cell volume.

U87VIII cells [1] = system: U87VIII cells
Method: (§1) A 96-well plate was seeded with U87 cells (10,000/well), and the cells were allowed to grow overnight. Then the FA-N3 solution was added (100 μL per well, various concentrations) to the cells and incubated for 24 hours. After the incubation, the cell media was removed, and a resazurin solution (10 g/mL, in cell media) was added to the plate and incubated for 2 hours. The fluorescence was read by a plate reader (Biotek, 540 nm excitation/590 nm emission).

U87VIII cells [2] = experiment: FA-N3 tolerance experiment (resazurin viability); conditions: FIG. 3E
Method: as §1

U87VIII cells [3] = experiment: FA-N3 uptake experiment at the bulk level, dendrimer/BHQ2-N3 surface detection; assay type: cell-based, human
Method: The 3rd or 4th generation dendrimer was immobilized on the glass slide surface (described above). To generate a working curve of FA-N3, 45 μL of FA-N3 (various concentrations in 1×PBST) was added to each well. The slide was incubated at 37° C. for 2 hours, allowing FA-N3 to react with the DBCO groups on the dendrimer. The FA-N3 solution was then removed, and each well was washed with 1×PBST three times. 45 μL of BHQ2-N3 solution (25 μM in 1×PBST) was added to each well, and the slide/PDMS device was incubated at 37° C. for 1 hour, allowing BHQ2-N3 to react with unoccupied DBCO sites. After removing the BHQ2-N3 solution, and the device was washed with 1×PBST three times. The PDMS slab was then removed, and the slide was washed with 1×PBS, 50% 1×PBS/water, and water. The slide was then air-dried, and the fluorescence intensities were obtained using a Genepix microarray scanner. Experiments were run in quadruplets to get the error bar.
The U87 cells were collected via centrifugation at 500 g for 5 min. The media was removed, and the cells were resuspended in FBS-free DMEM, resulting in a 4 M cells/mL suspension. 250 μL of the cell suspension was dispensed into Eppendorf tubes, and mixed with 250 μL of the FA-N3 solution (various concentrations, in FBS free DMEM). After 30 min incubation in the cell incubator, the cells were centrifuged at 500 g for 5 min and the resulting pellet was washed 3 times to remove any excess FA-N3. Then, 100 μL cell lysis buffer was added to each tube, and kept on ice for 15 min. The tubes were then sonicated and vortexed for 5 min. Finally, the tubes were centrifuged at maximum speed for 10 min. The supernatant was collected and subjected to surface-based FA-N3 detection.
Because of their hydrophobic tails, fatty acids may insert into the cell membrane. This partition is not an active transportation process and may confound the analysis. On the other hand, it was expected that the inserted probe molecules would remain in the membrane fragments upon cell lysis and not be detected by the assay. To assess this potential interference, we incubated the cells with the FA-N3 probe at 4° C. and used our platform to quantify the FA-N3 in the cells. At such a low temperature, the cells would stop the active transportation of the probe, and any observed signal would originate from the nonspecific insertion into the cell membrane. […] To rule out the possibility that the low-temperature treatment dampened the rate of the nonspecific insertion, we performed another experiment where we fixed the cells and then incubated them with the FA-N3 probe at 37° C. Again, the resulted signal was negligible (FIG. 3G).

Substance: azidopentanoic acid [FA-N3]
- intracellular FA-N3 concentration (U87VIII single cells): high μM to low mM
- fatty acid concentrations in the chambers (U87VIII single cells; calculated from the standard curve): high nM to low μM
- FA-N3 amount taken up by each cell (U87VIII single cells; chamber volume 2 nL): low fmol-level
- tolerance of the probe by the cells (U87VIII cells [1]): well-tolerated
- concentration well tolerated by cells (U87VIII cells [2]): up to 20 mM
- uptake signal after incubation at 4° C. (U87VIII cells [3]; U87VIII cells incubated with the probe at 4° C., vs control): indistinguishable from the control
- FA-N3 concentration above which uptake signal leveled off (U87VIII cells [3]; U87VIII cells, bulk level): above 10 mM
- cellular uptake of FA-N3 probe (U87VIII cells [3]; U87VIII cells, bulk level, 30 min incubation, varying FA-N3 concentrations): concentration-dependent manner
- uptake signal in fixed cells (U87VIII cells [3]; fixed U87VIII cells incubated with the probe at 37° C.): negligible
